Data on 25 compounds can be found in ChEMBL document CHEMBL1201862, “PubChem BioAssay data set” (2004).

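Assay format: 96-well plates, 48-hour exposure. Here, GI50 denotes the concentration required for 50% inhibition of growth.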 Calls of active or inactive are those of the source. Cut-off read from the data, not from the text of the source: active = GI50 up to about 1.1 µM and inactive = higher.

Test systems include DMS-114; DMS-273; LXFL 529; M19-MEL; RXF 631; SNB-78; DLD-1; HOP-18; XF498.
Common to all, as to assay: NCI anticancer screen, dose series, 48 h

On to `C=CCC1=C(C)C[C@@H]2CCC(=O)C=C12`, for which the GI50 in the test with DMS-114, with DMS-273, with LXFL 529, in the test on M19-MEL, with RXF 631 and with SNB-78 was > 100 µM (inactive) each time.

Turning to `Cc1c(Cl)cccc1NC(=O)C(=O)C1C(=O)CC(C)(C)CC1=O`, the GI50 in the test on DLD-1, with DMS-114, with DMS-273, in the test on HOP-18, in the test with LXFL 529 and in the test with M19-MEL was > 100 µM (inactive) each time. In addition, the GI50 with RXF 631 and in the test on SNB-78 was > 100 µM (inactive) in each case.

For the compound `O=C(NCCO)c1ccc([N+](=O)[O-])cc1`, the GI50 in the test on DLD-1, in the test with DMS-114, in the test with DMS-273, with LXFL 529, in the test on M19-MEL and with RXF 631 was > 100 µM (inactive) throughout. In addition, the GI50 in the test with SNB-78 and with XF498 was > 100 µM (inactive) in each case.

On to `Brc1cccc(/C=N/C23CC4CC(CC(C4)C2)C3)c1`, for which the GI50 with DLD-1, in the test with DMS-114, with DMS-273, in the test with HOP-18, in the test on LXFL 529 and with M19-MEL was > 100 µM (inactive) in each case. The GI50 in the test with SNB-78 and with XF498 was > 100 µM (inactive) throughout.

Regarding `CCCCCCCCC(O)C#CC(N)=O` (configuration not stated), the GI50 in the test on DLD-1 was 10.2 µM (inactive); in the test with DMS-114, 3.34 µM (inactive); with DMS-273, 7.28 µM (inactive); in the test with HOP-18, 12.6 µM (inactive); in the test on LXFL 529, 11.2 µM (inactive); in the test on M19-MEL, 11.8 µM (inactive). Also, the GI50 was 11.7 µM (inactive) in the test on RXF 631, 15.6 µM (inactive) with SNB-78 and 17.1 µM (inactive) in the test on XF498.

For `C=CC(=O)Nc1ccccc1CC(c1c[nH]c2ccccc12)c1c[nH]c2ccccc12`, the GI50 was 15.5 µM (inactive) with DMS-114; 17.7 µM (inactive) with DMS-273; 16.1 µM (inactive) with LXFL 529; 15.6 µM (inactive) in the test with M19-MEL; 16.7 µM (inactive) in the test with RXF 631; 16.3 µM (inactive) with SNB-78. Further, the GI50 with XF498 was 21.1 µM (inactive).

With `CCOC(=O)C(C(=O)OCC)=C1C=C(c2ccccc2)c2ccccc21`, the GI50 in the test on DLD-1 was 10.7 µM (inactive); with DMS-114, 54.6 µM (inactive); with DMS-273 it was 51.5 µM (inactive); in the test with LXFL 529 it was 53.2 µM (inactive); with M19-MEL it was 52.5 µM (inactive); in the test with SNB-78 it was > 100 µM (inactive). The GI50 with XF498 is 70.5 µM (inactive).

As to `C/C(CC(=O)Nc1ccc([N+](=O)[O-])cc1)=N\Nc1ccc([N+](=O)[O-])cc1[N+](=O)[O-]`, the GI50 was 39.4 µM (inactive) in the test on DLD-1; 48.5 µM (inactive) in the test with DMS-114; 18.5 µM (inactive) in the test on DMS-273; 20.9 µM (inactive) in the test on LXFL 529; > 100 µM (inactive) in the test with M19-MEL; > 100 µM (inactive) in the test on RXF 631. Besides, the GI50 in the test with SNB-78 was > 100 µM (inactive); with XF498, 86.7 µM (inactive).

For `O=C1NC2(CCCCCC2)C2CCCCCCC12O` (configuration not stated), the GI50 in the test with DLD-1, in the test on DMS-114, in the test on DMS-273, with HOP-18, in the test with LXFL 529 and in the test on M19-MEL was > 100 µM (inactive) in each case. The GI50 in the test with SNB-78 and in the test on XF498 was > 100 µM (inactive) in each case.

As for `O=C1Nc2ccccc2N/C1=C\C(=O)c1ccccc1O`, the GI50 in the test on DLD-1, in the test with DMS-114, in the test on DMS-273, in the test with HOP-18, in the test with LXFL 529 and in the test on M19-MEL was > 100 µM (inactive) throughout. Moreover, in the test with SNB-78, the GI50 is > 100 µM (inactive).

`c1ccc2c(c1)CCCc1cc3ccccc3nc1-2`: the GI50 is > 100 µM (inactive) in the test with DLD-1; 26.9 µM (inactive) with DMS-114; > 100 µM (inactive) in the test on HOP-18; > 100 µM (inactive) in the test with LXFL 529; > 100 µM (inactive) with M19-MEL; 85.7 µM (inactive) in the test on SNB-78. Besides, in the test with XF498, the GI50 was 53.3 µM (inactive).

Turning to `CC(=O)SC(SC(C)=O)SC(C)=O`, the GI50 with DLD-1 was > 100 µM (inactive); in the test on DMS-114 it was 31.1 µM (inactive); with DMS-273, > 100 µM (inactive); with HOP-18, > 100 µM (inactive); in the test with LXFL 529, 51.8 µM (inactive); with M19-MEL, > 100 µM (inactive). In addition, the GI50 with RXF 631 and in the test on SNB-78 was > 100 µM (inactive) in each case.

Take `O=C(C(=O)c1cc2ccccc2[nH]1)c1cc2ccccc2[nH]1`: the GI50 in the test with DLD-1 was > 316 µM (inactive); in the test with DMS-114, > 220 µM (inactive); in the test on DMS-273 it was > 318 µM (inactive); in the test with LXFL 529, > 210 µM (inactive); with M19-MEL it was > 195 µM (inactive); in the test with RXF 631 it was > 347 µM (inactive). Also, the GI50 was > 347 µM (inactive) in the test on SNB-78 and > 176 µM (inactive) in the test on XF498.

With `Cc1cc2c(=O)c3ccccc3[nH]c2c(C(=O)O)c1C`, the GI50 with DLD-1 is > 100 µM (inactive); with DMS-114, > 100 µM (inactive); with DMS-273, > 100 µM (inactive); with LXFL 529 it was > 100 µM (inactive); with M19-MEL, > 100 µM (inactive); in the test with SNB-78, 36.6 µM (inactive). In the test with XF498, the GI50 was > 100 µM (inactive).

Take `Cc1ccc(-c2cc(=O)c3cc(C)c(C)c(C(=O)O)c3o2)cc1N`: the GI50 with DLD-1, in the test on DMS-114, in the test with HOP-18, in the test with LXFL 529, with M19-MEL and in the test with RXF 631 was > 100 µM (inactive) in each case. For the same compound, the GI50 in the test with SNB-78 and in the test on XF498 was > 100 µM (inactive) throughout.

Take `CC12OC3(O)C4C5CC(C6C5C3C61)C42` (configuration not stated): the GI50 in the test with DLD-1 is > 100 µM (inactive); with DMS-114, > 100 µM (inactive); in the test with DMS-273, > 100 µM (inactive); with HOP-18, > 100 µM (inactive); in the test on LXFL 529 it was 22.9 µM (inactive); in the test with M19-MEL, > 100 µM (inactive). In addition, the GI50 in the test on RXF 631 and with SNB-78 was > 100 µM (inactive) each time.

Take `O=c1c2cccc3cccc(c4oc5c6cccc7cccc(c(=O)c5c14)c76)c32`: the GI50 in the test on DLD-1 was 15.1 µM (inactive); in the test with DMS-114, 12.5 µM (inactive); in the test with DMS-273, 12.8 µM (inactive); with HOP-18, 14.6 µM (inactive); in the test with LXFL 529, 11.1 µM (inactive); in the test with M19-MEL, 12 µM (inactive). Moreover, the GI50 in the test on RXF 631 is 11.4 µM (inactive); with SNB-78, 13.7 µM (inactive).

As to `CCC(=C(c1ccc(OCc2ccccc2)cc1)c1ccc(OCc2ccccc2)cc1)c1ccc(OC)cc1`, the GI50 in the test with DLD-1, in the test with DMS-114, with DMS-273, in the test on LXFL 529, in the test with M19-MEL and in the test with SNB-78 was > 100 µM (inactive) each time. The GI50 with XF498 was > 100 µM (inactive).

As to `CN(C)CCNC(=O)c1cccc2nc3c(ccc4ccccc43)nc12`, the GI50 in the test with DLD-1 was 1.79 µM (inactive); in the test on DMS-114 it was 2.69 µM (inactive); with DMS-273, 1.54 µM (inactive); in the test with HOP-18 it was 6.53 µM (inactive); in the test on LXFL 529, 2.51 µM (inactive); in the test with M19-MEL, 1.56 µM (inactive). Also, the GI50 in the test with RXF 631 was 1.02 µM (active); with SNB-78, 5.16 µM (inactive).

For `COc1ccc(O)cc1C(O)c1ccccc1` (configuration not stated), the GI50 in the test on DLD-1, in the test with DMS-273, with HOP-18, in the test with LXFL 529, in the test on M19-MEL and in the test on SNB-78 was > 100 µM (inactive) throughout. Moreover, in the test with XF498, the GI50 was > 100 µM (inactive).

Consider `CC(=O)Nc1ccc(S(=O)(=O)N/N=C/CN2C(=O)c3ccccc3C2=O)cc1`, for which the GI50 in the test on DLD-1, in the test on DMS-114, with DMS-273, with LXFL 529, with M19-MEL and in the test on XF498 was > 100 µM (inactive) in each case.

Turning to `C[C@]12CCC(=O)C(O)=C1CC[C@@H]1C2CC[C@]2(C)Nc3c(cnn3-c3ccccc3)CC12` (some centres not stated), the GI50 in the test on DLD-1 is > 100 µM (inactive); in the test with DMS-273 it was 56.4 µM (inactive); in the test on LXFL 529, 42.6 µM (inactive); with M19-MEL it was > 100 µM (inactive); in the test with RXF 631, 29.9 µM (inactive); in the test with SNB-78 it was > 100 µM (inactive). The GI50 in the test on XF498 was > 100 µM (inactive).

Take `O=CC1CCC=CC1NC(=O)OCc1ccccc1` (configuration not stated): the GI50 in the test on DLD-1 is 27.2 µM (inactive); with DMS-114 it was 22.7 µM (inactive); in the test on DMS-273, 27.9 µM (inactive); with HOP-18, > 100 µM (inactive); in the test with LXFL 529, 44.5 µM (inactive); in the test with M19-MEL it was 41.8 µM (inactive). Also, the GI50 in the test on SNB-78 is 50 µM (inactive); in the test on XF498, 44.2 µM (inactive).

On to `C=CCNC(=S)N/C=C1\C(=O)Oc2ccccc2C1=O`, for which the GI50 in the test with DLD-1 is 41.1 µM (inactive); with DMS-114, 35.2 µM (inactive); in the test with DMS-273, > 100 µM (inactive); with HOP-18, 46.2 µM (inactive); in the test with LXFL 529, > 100 µM (inactive); in the test on M19-MEL it was > 100 µM (inactive). Moreover, the GI50 is 43.9 µM (inactive) in the test with SNB-78 and 18.9 µM (inactive) in the test on XF498.

For the compound `Cn1cnc2nc(Cl)nc(NC(C)(C)C(C)(C)O)c21`, the GI50 in the test on DLD-1, in the test on DMS-114, in the test on DMS-273, with HOP-18, in the test with SNB-78 and in the test on XF498 was > 100 µM (inactive) in each case.
